Values after ≈ are worked out from the molar mass of the structure shown.
Key:
[1] = test system: P. aeruginosa ATCC 27853 (APAE001); assay: MIC assay, CLSI broth microdilution; type: cell-based; details: Pseudomonas aeruginosa, ATCC27853, read-out: MIC APAE001
Method: (§1) Minimum inhibitory concentrations (MIC) were determined by reference Clinical and Laboratory Standards Institute (CLSI) broth microdilution methods per M7-A7 [2006]. Quality control ranges utilizing E. coli ATCC 25922, P. aeruginosa ATCC 27853 and S. aureus ATCC 29213, and interpretive criteria for comparator agents were as published in CLSI M100-S17 [2007]. Briefly, serial two-fold dilutions of the test compounds were prepared at 2× concentration in Mueller Hinton Broth. The compound dilutions were mixed in 96-well assay plates in a 1:1 ratio with bacterial inoculum. The inoculum was prepared by suspension of a colony from an agar plate that was prepared the previous day. Bacteria were suspended in sterile saline and added to each assay plate to obtain a final concentration of 5×10^5 CFU/mL. The plates were incubated at 35° C. for 20 hours in ambient air.

[2] = test system: E. coli ATCC 25922 (AECO001); assay: MIC assay, CLSI broth microdilution; type: cell-based; details: Escherichia coli, ATCC25922, read-out: MIC AECO001
Method: as §1

`CN[C@@H]1[C@@H](O)[C@@H](O[C@@H]2[C@@H](O)[C@H](O[C@H]3OC(CNCC(O)CO)=CC[C@H]3N)[C@@H](N)C[C@H]2NC(=O)CO)OC[C@]1(C)O` (stereo partly drawn) [Example 23, 6′-(2-Hydroxy-propanol)-1-(2-hydroxy-acetyl)-sisomicin] was tested, and the MIC [1] was greater than 16 µg/mL and the MIC [2] was greater than 16 µg/mL.

`CN[C@@H]1[C@@H](O)[C@@H](O[C@@H]2[C@@H](O)[C@H](O[C@H]3OC(CNCC(O)CO)=CC[C@H]3N)[C@@H](N)C[C@H]2NC(=O)[C@H](O)CCN)OC[C@]1(C)O` (stereo partly drawn) [Example 3, 6′-(2-Hydroxy-propanol)-1-(4-amino-2(R)-hydroxy-butyryl)-sisomicin] showed an MIC [1] greater than 16 µg/mL and an MIC [2] of 1 to 16 µg/mL (≈ 1.61 to 25.7 µM).

Compound `CN[C@@H]1[C@@H](O)[C@@H](O[C@@H]2[C@@H](O)[C@H](O[C@H]3OC(CNCC(O)CO)=CC[C@H]3N)[C@@H](N)C[C@H]2NC(=O)[C@@H](O)CCN)OC[C@]1(C)O` (stereo partly drawn) [Example 19, 6′-(2-Hydroxy-propanol)-1-(4-amino-2(S)-hydroxy-butyryl)-sisomicin] has an MIC [1] of 1 to 16 µg/mL (≈ 1.61 to 25.7 µM) and an MIC [2] of less than 1 µg/mL.

Compound `CN[C@@H]1[C@@H](O)[C@@H](O[C@@H]2[C@@H](O)[C@H](O[C@H]3OC(CNCCCN)=CC[C@H]3N)[C@@H](N)C[C@H]2NS(=O)(=O)CCN)OC[C@]1(C)O` [Example 26, 6′-(3-Amino-propyl)-1-(2-amino-ethylsulfonamide)-sisomicin] has an MIC [1] of 1 to 16 µg/mL (≈ 1.63 to 26.2 µM) and an MIC [2] of 1 to 16 µg/mL (≈ 1.63 to 26.2 µM).

In the case of `CN[C@@H]1[C@@H](O)[C@@H](O[C@@H]2[C@@H](O)[C@H](O[C@H]3OC(CNC[C@H]4C[C@H](N)C4)=CC[C@H]3N)[C@@H](N)C[C@H]2NC(=O)C2(O)CNC2)OC[C@]1(C)O` [Example 63], the MIC [1] is reported as 1 to 16 µg/mL (≈ 1.59 to 25.4 µM) and the MIC [2] is reported as less than 1 µg/mL.

With `CN[C@@H]1[C@@H](O)[C@@H](O[C@@H]2[C@@H](O)[C@H](O[C@H]3OC(CNC[C@H](O)C(=O)O)=CC[C@H]3N)[C@@H](N)C[C@H]2NC(=O)[C@@H](O)CCN)OC[C@]1(C)O` [Example 50, 6′-(2(S)-Hydroxy-3-propanoic)-1-(4-amino-2(S)-hydroxy-butyryl)-sisomicin] the MIC [1] was greater than 16 µg/mL and the MIC [2] was greater than 16 µg/mL.

Work on `CN[C@@H]1[C@@H](O)[C@@H](O[C@@H]2[C@@H](O)[C@H](O[C@H]3OC(CNC[C@H]4C[C@H](N)C4)=CC[C@H]3N)[C@@H](N)C[C@H]2NC(=O)[C@@H](O)CCN)OC[C@]1(C)O` [Example 33, 6′-(Methyl-trans-3-amino-cyclobutyl)-1-(4-amino-2(S)-hydroxy-butyryl)-sisomicin] yielded an MIC [1] of 1 to 16 µg/mL (≈ 1.58 to 25.3 µM) and an MIC [2] of less than 1 µg/mL.

`CN[C@@H]1[C@@H](O)[C@@H](O[C@@H]2[C@@H](O)[C@H](O[C@H]3OC(CNCCO)=CC[C@H]3N)[C@@H](N)C[C@H]2NC(=O)CO)OC[C@]1(C)O` [Example 25, 6′-(2-Hydroxy-ethyl)-1-(2-hydroxy-acetyl)-sisomicin] showed an MIC [1] of 1 to 16 µg/mL (≈ 1.82 to 29.1 µM) and an MIC [2] of 1 to 16 µg/mL (≈ 1.82 to 29.1 µM).

For `CN[C@@H]1[C@@H](O)[C@@H](O[C@@H]2[C@@H](O)[C@H](O[C@H]3OC(CN)=CC[C@H]3NC(=O)C(N)CCCN)[C@@H](N)C[C@H]2NC(=O)[C@@H](O)CCN)OC[C@]1(C)O` (stereo partly drawn) [Example 99, 2′-(2,5-Diamino-pentoyl)-1-(4-amino-2(S)-hydroxy-butyryl)-sisomicin], the MIC [1] was 1 to 16 µg/mL (≈ 1.51 to 24.1 µM) and the MIC [2] was 1 to 16 µg/mL (≈ 1.51 to 24.1 µM).

Work on `CN[C@@H]1[C@@H](O)[C@@H](O[C@@H]2[C@@H](O)[C@H](O[C@H]3OC(CNCCCN)=CC[C@H]3N)[C@@H](N)C[C@H]2NC(=O)CO)OC[C@]1(C)O` [Example 24, 6′-(3-Amino-propyl)-1-(2-hydroxy-acetyl)-sisomicin] yielded an MIC [1] of 1 to 16 µg/mL (≈ 1.78 to 28.4 µM) and an MIC [2] of 1 to 16 µg/mL (≈ 1.78 to 28.4 µM).

With `CN[C@@H]1[C@@H](O)[C@@H](O[C@@H]2[C@@H](O)[C@H](O[C@H]3OC(CNCC4CC4)=CC[C@H]3N)[C@@H](N)C[C@H]2NC(=O)[C@H](O)CN)OC[C@]1(C)O` [Example 7, 6′-Methyl-cyclopropyl-1-(3-amino-2(R)-hydroxy-propionyl)-sisomicin] the MIC [1] was 1 to 16 µg/mL (≈ 1.7 to 27.2 µM) and the MIC [2] was less than 1 µg/mL.

With `CN[C@@H]1[C@@H](O)[C@@H](O[C@@H]2[C@@H](O)[C@H](O[C@H]3OC(CNCC(O)CCN)=CC[C@H]3N)[C@@H](N)C[C@H]2NC(=O)C(O)C2CNC2)OC[C@]1(C)O` (stereo partly drawn) [Example 77, 6′-(2-Hydroxy-4-amino-butyl)-1-(2-(azetidin-3-yl)-2-hydroxy-acetyl)-sisomicin] the MIC [1] was 1 to 16 µg/mL (≈ 1.54 to 24.7 µM) and the MIC [2] was 1 to 16 µg/mL (≈ 1.54 to 24.7 µM).

Work on `CN[C@@H]1[C@@H](O)[C@@H](O[C@@H]2[C@@H](O)[C@H](O[C@H]3OC(CNCCC4(O)CNC4)=CC[C@H]3N)[C@@H](N)C[C@H]2NC(=O)[C@@H](O)CN)OC[C@]1(C)O` [Example 70, 6′-(Ethyl-2-(3-hydroxy-azetidin-3-yl))-1-(3-amino-2(S)-hydroxy-propionyl)-sisomicin] yielded an MIC [1] greater than 16 µg/mL and an MIC [2] of 1 to 16 µg/mL (≈ 1.58 to 25.2 µM).

Compound `CN[C@@H]1[C@@H](O)[C@@H](O[C@@H]2[C@@H](O)[C@H](O[C@H]3OC(CNC[C@H](O)CO)=CC[C@H]3N)[C@@H](N)C[C@H]2NC(=O)[C@@H](O)CCN)OC[C@]1(C)O` [Example 28, 6′-(2(S)-Hydroxy-propanol)-1-(4-amino-2(S)-hydroxy-butyryl)-sisomicin] has an MIC [1] of 1 to 16 µg/mL (≈ 1.61 to 25.7 µM) and an MIC [2] of 1 to 16 µg/mL (≈ 1.61 to 25.7 µM).

In the case of `CN[C@@H]1[C@@H](O)[C@@H](O[C@@H]2[C@@H](O)[C@H](O[C@H]3OC(CNC[C@H]4C[C@H](N)C4)=CC[C@H]3N)[C@@H](N)C[C@H]2NC(=O)C2(O)CC(N)C2)OC[C@]1(C)O` (stereo partly drawn) [Example 60], the MIC [1] is reported as 1 to 16 µg/mL (≈ 1.55 to 24.9 µM) and the MIC [2] is reported as less than 1 µg/mL.

`CN[C@@H]1[C@@H](O)[C@@H](O[C@@H]2[C@@H](O)[C@H](O[C@H]3OC(CN)=CC[C@H]3NCCCCN)[C@@H](N)C[C@H]2NC(=O)[C@@H](O)CCN)OC[C@]1(C)O` [Example 102, 2′-(4-Amino-butyl)-1-(4-amino-2(S)-hydroxy-butyryl)-sisomicin] gave an MIC [1] of 1 to 16 µg/mL (≈ 1.61 to 25.8 µM) and an MIC [2] of less than 1 µg/mL.

With `CN[C@@H]1[C@@H](O)[C@@H](O[C@@H]2[C@@H](O)[C@H](O[C@H]3OC(CNCCO)=CC[C@H]3N)[C@@H](N)C[C@H]2NC(=O)C2(O)CC(N)C2)OC[C@]1(C)O` (stereo partly drawn) [Example 62] the MIC [1] was 1 to 16 µg/mL (≈ 1.65 to 26.5 µM) and the MIC [2] was less than 1 µg/mL.

Compound `CN[C@@H]1[C@@H](O)[C@@H](O[C@@H]2[C@@H](O)[C@H](O[C@H]3OC(CNCCCN)=CC[C@H]3N)[C@@H](N)C[C@H]2NC(=O)[C@H](O)CN)OC[C@]1(C)O` [Example 11, 6′-(3-Amino-propyl)-1-(3-amino-2(R)-hydroxy-propionyl)-sisomicin] has an MIC [1] of 1 to 16 µg/mL (≈ 1.69 to 27 µM) and an MIC [2] of less than 1 µg/mL.

`CN[C@@H]1[C@@H](O)[C@@H](O[C@@H]2[C@@H](O)[C@H](O[C@H]3OC(CNCCCN)=CC[C@H]3N)[C@@H](N)C[C@H]2NC(=O)C(O)C2CNC2)OC[C@]1(C)O` (stereo partly drawn) [Example 76, 6′-(3-Amino-propyl)-1-(2-(azetidin-3-yl)-2-hydroxy-acetyl)-sisomicin] showed an MIC [1] of 1 to 16 µg/mL (≈ 1.62 to 25.9 µM) and an MIC [2] of 1 to 16 µg/mL (≈ 1.62 to 25.9 µM).

Work on `CN[C@@H]1[C@@H](O)[C@@H](O[C@@H]2[C@@H](O)[C@H](O[C@H]3OC(CNCCC(N)C4CC4)=CC[C@H]3N)[C@@H](N)C[C@H]2NC(=O)[C@@H](O)CN)OC[C@]1(C)O` (stereo partly drawn) [Example 52, 6′-(3-Amino-3-cyclopropyl-propyl)-1-(3-amino-2(S)-hydroxy-propionyl)-sisomicin] yielded an MIC [1] of 1 to 16 µg/mL (≈ 1.58 to 25.3 µM) and an MIC [2] of less than 1 µg/mL.

`CN[C@@H]1[C@@H](O)[C@@H](O[C@@H]2[C@@H](O)[C@H](O[C@H]3OC(CNCCCO)=CC[C@H]3N)[C@@H](N)C[C@H]2NC(=O)[C@@H](O)CN)OC[C@]1(C)O` [Example 54, 6′-(3-Propanol)-1-(3-amino-2(S)-hydroxy-propionyl)-sisomicin] gave an MIC [1] of 1 to 16 µg/mL (≈ 1.69 to 27 µM) and an MIC [2] of less than 1 µg/mL.

`CN[C@@H]1[C@@H](O)[C@@H](O[C@@H]2[C@@H](O)[C@H](O[C@H]3OC(CNCC(O)CO)=CC[C@H]3N)[C@@H](N)C[C@H]2NC(=O)[C@H](O)CN)OC[C@]1(C)O` (stereo partly drawn) [Example 10, 6′-(2-Hydroxy-propanol)-1-(3-amino-2(R)-hydroxy-propionyl)-sisomicin] was tested, and the MIC [1] was 1 to 16 µg/mL (≈ 1.64 to 26.3 µM) and the MIC [2] was 1 to 16 µg/mL (≈ 1.64 to 26.3 µM).

Work on `CN[C@@H]1[C@@H](O)[C@@H](O[C@@H]2[C@@H](O)[C@H](O[C@H]3OC(CN)=CC[C@H]3NCC(O)CO)[C@@H](N)C[C@H]2NC(=O)[C@@H](O)CCN)OC[C@]1(C)O` (stereo partly drawn) [Example 100, 2′-(2-Hydroxy-propanol)-1-(4-amino-2(S)-hydroxy-butyryl)-sisomicin] yielded an MIC [1] greater than 16 µg/mL and an MIC [2] of 1 to 16 µg/mL (≈ 1.61 to 25.7 µM).

With `CN[C@@H]1[C@@H](O)[C@@H](O[C@@H]2[C@@H](O)[C@H](O[C@H]3OC(CNCC4(O)CC(N)C4)=CC[C@H]3N)[C@@H](N)C[C@H]2NC(=O)C(O)C2CNC2)OC[C@]1(C)O` (stereo partly drawn) [Example 83, 6′-(Methyl-3-amino-1-hydroxy-cyclobutyl)-1-(2-(azetidin-3-yl)-2-hydroxy-acetyl)-sisomicin] the MIC [1] was greater than 16 µg/mL and the MIC [2] was 1 to 16 µg/mL (≈ 1.52 to 24.3 µM).

`CN[C@@H]1[C@@H](O)[C@@H](O[C@@H]2[C@@H](O)[C@H](O[C@H]3OC(CNCC4CCNCC4)=CC[C@H]3N)[C@@H](N)C[C@H]2NC(=O)[C@H](O)CCN)OC[C@]1(C)O` [Example 4, 6′-(Methyl-piperidin-4-yl)-1-(4-amino-2(R)-hydroxy-butyryl)-sisomicin] gave an MIC [1] of 1 to 16 µg/mL (≈ 1.55 to 24.8 µM) and an MIC [2] of 1 to 16 µg/mL (≈ 1.55 to 24.8 µM).

`CN[C@@H]1[C@@H](O)[C@@H](O[C@@H]2[C@@H](O)[C@H](O[C@H]3OC(CNCCCCN)=CC[C@H]3N)[C@@H](N)C[C@H]2NC(=O)[C@@H](O)CCN)OC[C@]1(C)O` [Example 43, 6′-(4-Amino-butyl)-1-(4-amino-2(S)-hydroxy-butyryl)-sisomicin] showed an MIC [1] of less than 1 µg/mL and an MIC [2] of less than 1 µg/mL.

With `CN[C@@H]1[C@@H](O)[C@@H](O[C@@H]2[C@@H](O)[C@H](O[C@H]3OC(CNCC(O)CO)=CC[C@H]3N)[C@@H](N)C[C@H]2NS(=O)(=O)CCN)OC[C@]1(C)O` (stereo partly drawn) [Example 27, 6′-(2-Hydroxy-propanol)-1-(2-amino-ethylsulfonamide)-sisomicin] the MIC [1] was greater than 16 µg/mL and the MIC [2] was 1 to 16 µg/mL (≈ 1.59 to 25.4 µM).
